Reference: patent US20080176905A1, “Polymorphic forms of rosiglitazone hydrobromide and processes for preparation thereof” (priority 2007, published 2008)
Counter-ions that a name gives are not always drawn.

Key:
[1] = Crystalline stability of Form I under pressure, grinding and heating (XRD of resulting material)
[2] = Weight loss on drying measured by TGA; format: physicochemical; settings: for Weight loss, as measured by TGA: general statement in description, hydrobromide
Procedure: TGA analysis was preformed using Mettler 3M with Mettler TG 50 thermobalance. The weight of the samples was about 10 mg; the samples were scanned at a rate of 10° C./min from 25° C. to 200 or 250° C. The oven was constantly purged with nitrogen gas at a flow rate of 40 ml/min. Standard alumina crucibles covered by lids with 1 hole were used.

[3] = Polymorphic stability of Form I in compacted tablet with excipients; format: physicochemical; settings: compacted with lactose monohydrate, sucrose and avicel
From the text: Solid pharmaceutical compositions of Form I and the following excipients were compacted into a dosage form like a tablet: lactose monohydrate, sucrose and avicel. The polymorphic stability of Rosiglitazone form I in such tablet was examined and determined to be stable.

[4] = Water content by Karl Fisher (KF) analysis; format: physicochemical; settings: for Water content, as measured by KF: general statement in description, hydrobromide
From the text: As used herein, the term “water content” refers to the content of water based upon the Loss on Drying method (the “LOD” method) as described in UPS 29-NF 24, official Aug. 1, 2006, Physical Test and Determinations, <731> LOSS ON DRYING or in Pharmacopeial Forum, Vol. 24, No. 1, p. 5438 (January-February 1998), the Karl Fisher assay for determining water content or thermogravimetric analysis (TGA). All percentages herein are by weight unless otherwise indicated. As used herein, the term “monohydrate” when used in reference to Rosiglitazone hydrobromide describes Rosiglitazone hydrobromide having water content of between about 3.9-4.1% w/w. As used herein, the term “hemi-hydrate” when used in reference to Rosiglitazone hydrobromide describes Rosiglitazone hydrobromide having a water content of about 1.8-2.1% w/w. As used herein, the term “quarter-hydrate” when used in reference to Rosiglitazone hydrobromide describes Rosiglitazone hydrobromide having a water content of about 0.7-1.0% w/w.
Water content was determined by Karl Fisher analysis using Mettler Toledo DL 38 Karl Fisher Titrator.

[5] = relative humidity 100%
[6] = 0 % RH, room temperature, 7 days
[7] = 100 % RH, room temperature, 7 days
[8] = listed as Rosiglitazone hydrobromide Form I
[9] = listed as Rosiglitazone hydrobromide Form II

Compound	Stability under extreme heating conditions ([1]; 80° C. for 30 minutes)	Stability under high pressure and grinding conditions ([1]; high pressure and grinding)	TGA (weight loss on drying) [2, 6]	TGA (weight loss on drying) [2, 7]	TGA (weight loss on drying) ([2]; As is)	Weight loss, as measured by TGA [2, 8]	Polymorphic stability in tablet [3]	KF (water content) [4, 6] [%]	KF (water content) [4, 7] [%]	KF (water content) ([4]; As is) [%]	Water content, as measured by KF [4, 8]	Water content ([4]; relative humidity of about 0%, corresponds to a quarter-hydrate)	Water content ([4]; relative humidity of about 50%, corresponds to a hemihydrate)	Hydrate obtained on maintaining at relative humidity ([4]; relative humidity of about 100%)	Stability under extreme relative humidity conditions [5]	Weight loss, as measured by TGA [2, 9]	Water content, as measured by KF [4, 9]
CN(CCOc1ccc(CC2SC(=O)NC2=O)cc1)c1ccccn1 (centres unmarked) [Form I, Rosiglitazone hydrobromide]	stable	stable	0.7	3.9	4.1	0.7-4.1 % by weight	stable	1	4.1	4.1	1.0-4.1 % by weight	about 1%	about 2%	a monohydrate is obtained	stable	–	–
CN(CCOc1ccc(CC2SC(=O)NC2=O)cc1)c1ccccn1 (centres unmarked) [Form II, Rosiglitazone hydrobromide]	–	–	–	–	–	–	–	–	–	–	–	–	–	–	–	about 3.9 % by weight	about 4.1 % by weight
